Results on 17 molecules are retold here after patent US6342503B1, “1N-alkyl-n-arylpyrimidinamines and derivatives thereof” (DuPont Pharmaceuticals Company, priority 1993, dated 2002).

One data set concerns the target T1, CRF receptor (Rattus norvegicus, UniProt P35353).
T1 construct: 100 μl of membrane suspension as prepared above to give a total reaction volume of 300 μl; from tissue; host or cells: rat cerebral cortex membrane homogenate
T1 sequence (P35353 24-415): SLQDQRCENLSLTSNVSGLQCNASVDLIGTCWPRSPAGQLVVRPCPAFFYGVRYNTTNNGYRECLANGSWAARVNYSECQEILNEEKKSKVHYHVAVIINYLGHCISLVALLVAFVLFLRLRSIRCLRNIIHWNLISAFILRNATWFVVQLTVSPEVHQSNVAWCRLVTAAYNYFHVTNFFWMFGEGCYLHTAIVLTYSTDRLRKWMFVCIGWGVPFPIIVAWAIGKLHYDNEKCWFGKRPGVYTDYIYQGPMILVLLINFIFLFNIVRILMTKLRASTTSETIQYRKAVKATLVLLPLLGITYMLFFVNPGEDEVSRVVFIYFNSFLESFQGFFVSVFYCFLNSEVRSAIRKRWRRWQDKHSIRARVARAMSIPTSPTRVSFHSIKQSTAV
Put plainly: In vitro CRF receptor binding assay (competition with [125I] ovine CRF, rat cortex membranes). The note with it: read-out: Inhibition Ki.

SMILES strings stand for the structures. Counter-ions that a name gives are not always drawn.

`CCc1ccc(N(c2nc(C)cc(C)n2)C(C)C)c(SC)c1` [compound 181, N-(4-ethyl-2-methylthiophenyl)-N-(1-methylethyl)4,6-dimethyl-2-pyrimidinamine] showed a melting point of 85 to 87 °C. The Ki at CRF receptor was below 500 nM.

As for `CCN(c1nc(C)cc(C)n1)c1ccc(C(C)C)cc1SC` [compound 168, N-(2-methylthio-4-(1-methylethyl)phenyl)-N-ethyl-4,6-dimethyl-2-pyrimidinamine], the melting point was 64 to 66 °C. Further, the Ki at CRF receptor was below 500 nM.

`CCN(c1nc(C)cc(C)n1)c1ccc(N(C)C(C)=O)cc1SC` [compound 183, N-(2-methylthio-4-(N-acetyl-N-methylamino)phenyl)-N-ethyl-4,6-dimethyl-2-pyrimidinamine] yielded a melting point of 158 to 160 °C. Besides, the Ki on CRF receptor was in the range of 2000 to 10000 nM. The like results for `CCN(c1nc(C)cc(C)n1)c1ccc(NC)cc1SC` [compound 190, N-(4-(N-methylamino)-2-methylthiophenyl)-N-ethyl-4,6-dimethyl-2-pyrimidinamine] were, in that order, 141 to 142 °C and below 500 nM.

The molecule `CCN(c1nc(C)cc(C)n1)c1c(OC)cc(OC)c(Br)c1Br` [compound 251, N-(2,3-Dibromo-4,6-dimethoxyphenyl)-N-ethyl-4,6-dimethyl-2-pyrimidinamine] displayed a melting point of 133 to 138 °C. Further, at CRF receptor, the Ki is 501 to 2000 nM. The like results for `C=CCN(c1nc(C)cc(N2CCOCC2)n1)c1ccc(C(C)C)cc1I` [compound 165, N-(2-iodo4-(1-methylethyl)phenyl)-N-allyl4-morpholino-6-methyl-2-pyrimidinamine] were, in that order, 109 to 112 °C and below 500 nM. The like results for `COc1ccc(Nc2nc(C)cc(C)n2)c(Br)c1` [compound 204] were, in that order, 118 to 119 °C and 2000 to 10000 nM. The like results for `CCc1cc(N2CCCCC2)nc(N(C)c2ccc(C(C)C)cc2Br)n1` [compound 194] were, in that order, 211 to 212 °C and below 500 nM. As to `CCN(c1nc(C)cc(C(=O)c2cc[nH]n2)n1)c1ccc(C(C)C)cc1Br` [compound 286], the melting point was in the range of 171 to 173 °C. The inhibitory constant (Ki) on CRF receptor is below 500 nM. The like results for `CCN(c1nc(C)cc(N2CCCC2)n1)c1ccc(C(C)C)cc1Br` [compound 192] were, in that order, 106 to 107 °C and below 500 nM.

As for `CCN(c1nc(C)cc(C)n1)c1ccc(CCO)cc1Br` [compound 64, N-(2-Bromo-4-(2-hydroxyethyl)phenyl)-N-ethyl-4,6-dimethyl-2-pyrimidinamine], the melting point was in the range of 58 to 60 °C. In addition, at CRF receptor, the Ki was in the range of 2000 to 10000 nM. In turn, `Cc1ccc(N(C)c2nc(C)cc(N3CCOCC3)n2)c(Br)c1` [compound 6] showed a melting point of 40 to 42 °C. Besides, the inhibition constant (Ki) on CRF receptor is 501 to 2000 nM. The like results for `CCN(c1nc(C)cc(N2CCOCC2)n1)c1ccc(C(C)C)cc1I` [compound 30, N-Ethyl-N-(2-iodo4-(1-methylethyl)phenyl)4-morpholinyl-6-methyl-2-pyrimidinamine] were, in that order, 96 to 98 °C and below 500 nM. The like results for `CCOC(=O)N1CCN(c2nc(C)nc(N(CC)c3c(Br)cc(OC)cc3OC)n2)CC1` [compound 244] were, in that order, 65 to 70 °C and 2000 to 10000 nM. The like results for `CCN(c1nc(C)cc(C(=O)c2ccco2)n1)c1ccc(C(C)C)cc1Br` [compound 288] were, in that order, 136 to 138 °C and below 500 nM. As to `Cc1cc(C)nc(N(C)c2ccc(C(C)C)cc2Br)n1` (as salt: hydrochloride) [compound 4, N-(2-bromo-4-(1-methylethyl)phenyl)-N-methyl-4,6-dimethyl-2-pymidinamine], the melting point fell in the range of 163 to 164 °C. `C=CCN(c1nc(C)cc(C)n1)c1ccccc1Br` (as salt: hydrochloride) [compound 3] yielded a melting point of 127 to 129 °C.
